According to patent US20040063662A1, “Selenophene anti-tumor agents” (priority 1996, published 2004):

What was measured:
MOLT-4 = experiment: NCI human tumor cell panel: MOLT-4 (Leukemia); assay type: cell-based
RPMI-8226 = experiment: NCI human tumor cell panel: RPMI-8226 (Leukemia); assay type: cell-based
A549/ATCC = experiment: NCI human tumor cell panel: A549/ATCC (Non-Small Cell Lung Cancer); assay type: cell-based
EKVX = experiment: NCI human tumor cell panel: EKVX (Non-Small Cell Lung Cancer); assay type: cell-based
NCI-H23 = experiment: NCI human tumor cell panel: NCI-H23 (Non-Small Cell Lung Cancer); assay type: cell-based
NCI-H322M = experiment: cells; assay type: cell-based; details: Homo sapiens
NCI-H460 = experiment: NCI human tumor cell panel: NCI-H460 (Non-Small Cell Lung Cancer); assay type: cell-based; details: NCI-H460, read-out: Log10 TGI (converted)
HCT-116 = experiment: NCI human tumor cell panel: HCT-116 (Colon Cancer); assay type: cell-based
HT29 = experiment: NCI human tumor cell panel: HT29 (Colon Cancer); assay type: cell-based; details: HT-29, HT29, read-out: Log10 TGI (converted)
SW-620 = experiment: NCI human tumor cell panel: SW-620 (Colon Cancer); assay type: cell-based
SF-295 = experiment: NCI human tumor cell panel: SF-295 (CNS Cancer); assay type: cell-based
SF-539 = experiment: NCI human tumor cell panel: SF-539 (CNS Cancer); assay type: cell-based
SNB-75 = experiment: NCI human tumor cell panel: SNB-75 (CNS Cancer); assay type: cell-based
U251 = experiment: NCI human tumor cell panel: U251 (CNS Cancer); assay type: cell-based
LOX IMVI = experiment: NCI human tumor cell panel: LOX IMVI (Melanoma); assay type: cell-based
M14 = experiment: NCI human tumor cell panel: M14 (Melanoma); assay type: cell-based
SK-MEL-2 = experiment: NCI human tumor cell panel: SK-MEL-2 (Melanoma); assay type: cell-based
SK-MEL-28 = experiment: NCI human tumor cell panel: SK-MEL-28 (Melanoma); assay type: cell-based
SK-MEL-5 = experiment: NCI human tumor cell panel: SK-MEL-5 (Melanoma); assay type: cell-based
IGROV1 = experiment: NCI human tumor cell panel: IGROV1 (Ovarian Cancer); assay type: cell-based
OVCAR-3 = experiment: NCI human tumor cell panel: OVCAR-3 (Ovarian Cancer); assay type: cell-based
OVCAR-8 = experiment: NCI human tumor cell panel: OVCAR-8 (Ovarian Cancer); assay type: cell-based
786-0 = experiment: NCI human tumor cell panel: 786-0 (Renal Cancer); assay type: cell-based
A498 = experiment: NCI human tumor cell panel: A498 (Renal Cancer); assay type: cell-based
ACHN = experiment: NCI human tumor cell panel: ACHN (Renal Cancer); assay type: cell-based
TK-10 = experiment: NCI human tumor cell panel: TK-10 (Renal Cancer); assay type: cell-based
UO-31 = experiment: NCI human tumor cell panel: UO-31 (Renal Cancer); assay type: cell-based
MCF7/ADR-RES = experiment: NCI human tumor cell panel: MCF7/ADR-RES (Breast Cancer); assay type: cell-based
MDA-MB-435 = experiment: NCI human tumor cell panel: MDA-MB-435 (Breast Cancer); assay type: cell-based
MDA-N = experiment: NCI human tumor cell panel: MDA-N (Breast Cancer); assay type: cell-based
BT-549 = experiment: NCI human tumor cell panel: BT-549 (Breast Cancer); assay type: cell-based
NCI-H522 = experiment: NCI human tumor cell panel: NCI-H522 (Non-Small Cell Lung Cancer)
[1] = read-out: Log10 GI50 (converted)
[2] = read-out: Log10 TGI (converted)

## OCc1ccc(-c2ccc(-c3ccc[se]3)s2)[se]1 [compound 676631]
MOLT-4; MOLT-4, read-out: Log10 GI50 (converted)
  GI50: > 100 µM
MOLT-4; MOLT-4, read-out: Log10 TGI (converted)
  IC (TGI): > 100 µM
RPMI-8226; RPMI-8226, read-out: Log10 GI50 (converted)
  GI50: > 100 µM
RPMI-8226; RPMI-8226, read-out: Log10 TGI
  IC (TGI): > 100 µM
A549/ATCC; [1]
  GI50: 58.9 µM
A549/ATCC; [2]
  IC (TGI): > 100 µM
EKVX; [1]
  GI50: > 100 µM
EKVX; [2]
  IC (TGI): > 100 µM
NCI-H23; NCI-H23, read-out: Log10 GI50 (converted)
  GI50: 16.6 µM
NCI-H23; NCI-H23, read-out: Log10 TGI (converted)
  IC (TGI): 38.9 µM
NCI-H322M; [1]
  GI50: 21.9 µM
NCI-H322M; [2]
  IC (TGI): > 100 µM
NCI-H460
  IC (TGI): > 100 µM
HCT-116; HCT-116, read-out: Log10 GI50 (converted)
  GI50: 0.0537 µM
HCT-116; HCT-116, read-out: Log10 TGI (converted)
  IC (TGI): > 100 µM
HT29
  IC (TGI): > 100 µM
SW-620; SW-620, read-out: Log10 GI50 (converted)
  GI50: 0.355 µM
SW-620; SW-620, read-out: Log10 TGI (converted)
  IC (TGI): > 100 µM
SF-295; SF-295, read-out: Log10 GI50 (converted)
  GI50: 55 µM
SF-295; SF-295, read-out: Log10 TGI (converted)
  IC (TGI): > 100 µM
SF-539; SF-539, read-out: Log10 GI50 (converted)
  GI50: 12.3 µM
SF-539; SF-539, read-out: Log10 TGI (converted)
  IC (TGI): 57.5 µM
SNB-75; SNB-75, read-out: Log10 GI50 (converted)
  GI50: 41.7 µM
SNB-75; SNB-75, read-out: Log10 TGI (converted)
  IC (TGI): > 100 µM
U251; U-251, U251, read-out: Log10 GI50 (converted)
  GI50: 0.0776 µM
U251; U-251, U251, read-out: Log10 TGI (converted)
  IC (TGI): 20 µM
LOX IMVI; [1]
  GI50: 15.1 µM
LOX IMVI; [2]
  IC (TGI): 36.3 µM
M14; M14, read-out: Log10 GI50 (converted)
  GI50: 20 µM
M14; M14, read-out: Log10 TGI (converted)
  IC (TGI): > 100 µM
SK-MEL-2; SK-MEL-2, read-out: Log10 GI50 (converted)
  GI50: > 100 µM
SK-MEL-2; SK-MEL-2, read-out: Log10 TGI (converted)
  IC (TGI): > 100 µM
SK-MEL-28; SK-MEL-28, read-out: Log10 GI50 (converted)
  GI50: 66.1 µM
SK-MEL-28; SK-MEL-28, read-out: Log10 TGI (converted)
  IC (TGI): > 100 µM
SK-MEL-5; SK-MEL-5, read-out: Log10 GI50 (converted)
  GI50: > 100 µM
SK-MEL-5; SK-MEL-5, read-out: Log10 TGI (converted)
  IC (TGI): > 100 µM
IGROV1; IGROV-1, IGROV1, read-out: Log10 GI50 (converted)
  GI50: 0.0813 µM
IGROV1; IGROV-1, IGROV1, read-out: Log10 TGI (converted)
  IC (TGI): 0.603 µM
OVCAR-3; OVCAR-3, read-out: Log10 GI50 (converted)
  GI50: 0.0275 µM
OVCAR-3; OVCAR-3, read-out: Log10 TGI (converted)
  IC (TGI): 0.138 µM
OVCAR-8; OVCAR-8, read-out: Log10 GI50 (converted)
  GI50: 24.5 µM
OVCAR-8; OVCAR-8, read-out: Log10 TGI (converted)
  IC (TGI): > 100 µM
786-0; 786-0, read-out: Log10 GI50 (converted)
  GI50: > 100 µM
786-0; 786-0, read-out: Log10 TGI (converted)
  IC (TGI): > 100 µM
A498; A498, read-out: Log10 GI50 (converted)
  GI50: 0.0275 µM
A498; A498, read-out: Log10 TGI (converted)
  IC (TGI): 0.0832 µM
ACHN; [1]
  GI50: > 100 µM
ACHN; [2]
  IC (TGI): > 100 µM
TK-10; TK-10, read-out: Log10 GI50 (converted)
  GI50: 0.0501 µM
TK-10; TK-10, read-out: Log10 TGI (converted)
  IC (TGI): 0.372 µM
UO-31; UO-31, read-out: Log10 GI50 (converted)
  GI50: > 100 µM
UO-31; UO-31, read-out: Log10 TGI (converted)
  IC (TGI): > 100 µM
MCF7/ADR-RES; [1]
  GI50: 10 µM
MCF7/ADR-RES; [2]
  IC (TGI): 31.6 µM
MDA-MB-435; MDA-MB-435, read-out: Log10 GI50 (converted)
  GI50: 8.13 µM
MDA-MB-435; MDA-MB-435, read-out: Log10 TGI (converted)
  IC (TGI): 55 µM
MDA-N; [1]
  GI50: 16.6 µM
MDA-N; [2]
  IC (TGI): 43.7 µM
BT-549; BT-549, read-out: Log10 GI50 (converted)
  GI50: 17 µM
BT-549; BT-549, read-out: Log10 TGI (converted)
  IC (TGI): 38 µM
NCI-H522; NCI-H522, read-out: Log10 GI50 (converted)
  GI50: 5.25 µM
NCI-H522; NCI-H522, read-out: Log10 TGI
  IC (TGI): 21.4 µM
